Laboratory results published in the supplement of paper PMC10307832.

How the values were obtained:
Test in all cases: relative viability (nuclei count vs DMSO), 5 days (fraction); higher = more cells survive
Pifithrin_alpha = compound: CC1=CC=C(C=C1)C(=O)CN2C3=C(CCCC3)SC2=N [Pifithrin_alpha]
Method in brief: (§1)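 In 1536-well plates, lung cancer cell lines rested overnight at 37 °C before five library-drug doses (not always all listed), √10 apart, were pinned onto vehicle-anchored plates. Nuclei were counted with MetaXpress from 4× Hoechst images taken after 5 days without medium change. Viability compares treated-well with vehicle-well nuclei as a median over plates, and plates needed control CV below 25% plus at least one doubling to pass.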

Axitinib = compound: CNC(=O)c1ccccc1Sc1ccc2c(/C=C/c3ccccn3)n[nH]c2c1 [Axitinib]
Method in brief: as §1

Bemcentinib = compound: Nc1nc(Nc2ccc3c(c2)CC[C@@H](N2CCCC2)CC3)nn1-c1cc2c(nn1)-c1ccccc1CCC2 [Bemcentinib]
Method in brief: as §1

[1] = compound: CC1=CC=C(C=C1)C(=O)CN2C3=C(CCCC3)SC2=N [Pifithrin_alpha] + COc1cc2c(Oc3ccc(NC(=O)C4(C(=O)Nc5ccc(F)cc5)CC4)cc3F)ccnc2cc1OCCCN1CCOCC1 [Foretinib] (partner 0.25 µM)
Method in brief: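 Five library-drug doses in √10 steps were combined with a fixed anchor-drug dose, or a single drug was given alone, by pin tool to lung cancer cell lines in 1536-well plates the day after seeding. Nuclei were stained and counted after 5 days. Relative viability is the nuclei count in treated wells over that in vehicle wells, taken as the median of duplicate plates.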

Row | Cell Line | relative viability (Pifithrin_alpha; 1 µM) | relative viability (Pifithrin_alpha; 3.162 µM) | relative viability (Pifithrin_alpha; 10 µM) | relative viability (Pifithrin_alpha; 31.62 µM) | relative viability (Pifithrin_alpha; 100 µM) | relative viability (Axitinib; 0.005 µM) | relative viability (Axitinib; 0.01581 µM) | relative viability (Axitinib; 0.05 µM) | relative viability (Axitinib; 0.1581 µM) | relative viability (Axitinib; 0.5 µM) | relative viability (Bemcentinib; 0.04 µM) | relative viability (Bemcentinib; 0.1265 µM) | relative viability (Bemcentinib; 0.4 µM) | relative viability (Bemcentinib; 1.265 µM) | relative viability (Bemcentinib; 4 µM) | relative viability ([1]; first compound 1 µM) | relative viability ([1]; first compound 3.162 µM) | relative viability ([1]; first compound 10 µM) | relative viability ([1]; first compound 31.62 µM) | relative viability ([1]; first compound 100 µM)
1 | NCI-H2405 | 0.733 | 0.962 | 0.904 | 0.876 | 0.921 | 1 | 1.04 | 1.14 | 0.973 | 0.95 | 0.944 | 1.03 | 1.01 | 1 | 1.08 | 1.01 | 0.974 | 0.907 | 0.884 | 0.784
2 | NCI-H1299 | 0.997 | 1.06 | 1.02 | 0.812 | 1.02 | 1.04 | 1 | 1.05 | 1 | 1.08 | 1.02 | 1.02 | 1.05 | 0.994 | 1.05 | 1.04 | 1.14 | 1.07 | 0.889 | 1.07
3 | NCI-H1650 | 0.889 | 0.811 | 0.787 | 0.607 | 0.813 | 1.07 | 0.805 | 1.05 | 0.822 | 1.15 | 0.783 | 1.01 | 0.974 | 0.978 | 0.861 | – | 1.2 | 1.04 | 0.837 | 0.853
4 | EMC-BAC-2 | 0.716 | 1.02 | 0.617 | 0.799 | 0.93 | 1 | 0.925 | 0.977 | 0.957 | 0.771 | 0.956 | 0.939 | 1.07 | 0.955 | 0.978 | 0.912 | 0.932 | 0.968 | – | 0.818
5 | LCLC-103H | 0.996 | 0.974 | 0.959 | 0.848 | 0.887 | 0.946 | 0.973 | 1 | 0.959 | 0.867 | 0.992 | 1.07 | 0.96 | 1.04 | 0.994 | 0.729 | 0.787 | 0.84 | 0.514 | 0.824
6 | BEN | 0.854 | 1.02 | 1.14 | 0.93 | 1.08 | 0.958 | 1.01 | 0.902 | 0.868 | 0.741 | 0.833 | 1.13 | 1.08 | 0.919 | 0.894 | 0.357 | 0.736 | 0.697 | 0.508 | 0.625
7 | NCI-H1755 | 0.919 | 0.964 | 0.882 | 0.841 | 1.05 | 1.02 | 1.01 | 1.05 | 0.992 | 0.997 | 1.06 | 1.05 | 1.02 | 1.05 | 1.08 | 0.819 | 0.833 | 0.849 | 0.674 | 0.862
